Experimental data as given in patent US8716292B2, “Riminophenazines with 2-(heteroaryl)amino substituents and their anti-microbial activity” (priority 2010, dated 2014).
≈ marks a conversion by molar mass, not a printed value. Where two headings read alike, the source gives them in different places.

Tests used:
H37Rv = assay: In vivo testing: mice infected intravenously with H37Rv, lung tissue CFU counts; parameters: species or system Male BALB/c mice; conditions: thirty days postinfection; for Log CFU (TBI treated): 20 mg/kg, gavage 5 times weekly, lung tissue CFU; for log reduction at 20 mg/kg: Mycobacterium tuberculosis, H37RV, iv, 720 h, versus untreated control, lung tissue, read-out: Log CFU Reduction (TBI treated)
Protocol: Male BALB/c mice (18˜20 g) were infected intravenously with 0.2 ml portions containing 1×10^5 CFU of H37Rv. One day after the infection, four mice were sacrificed and the numbers of CFU in the spleens and lungs were determined. Organs were removed and homogenized in Middlebrook 7H9 broth. To enumerate CFU, appropriate dilutions of the homogenates were plated onto Middlebrook 7H10 agar and colonies were counted after 3 to 4 weeks of incubation at 37° C. The remaining mice were allocated either to untreated groups or to various drug treated groups (six mice per group). The dose of every test compound was 20 mg/kg. The positive control groups were treated by isoniazid and clofazimine. The test compounds and clofazimine were administered by gavage 5 times weekly. Untreated mice were administered by gavage with CMC. Thirty days postinfection, both untreated and treated mice were sacrificed and lung tissue CFU counts were determined. The significance of the CFU count and organ weight difference was assessed by a two-tailed Student t test. P≦0.01 was considered significant.

[1] = system: Mycobacterium tuberculosis H37Rv strains; assay: In vitro assay for antimicrobial susceptibility (microplate Alamar blue MIC); type: cell-based; conditions: Mycobacterium tuberculosis, H37RV, read-out: MIC (μg/mL) against H37Rv
tuberculosis [2] = conditions: monkey model; cited from earlier work
tuberculosis [3] = conditions: guinea pig model; cited from earlier work
tuberculosis [4] = conditions: mice; cited from earlier work
tuberculosis [5] = conditions: hamsters; cited from earlier work
[6] = in vivo; cited from earlier work
[7] = in vitro, Mycobacterium tuberculosis H37Rv strains

## Cc1ccc(Nc2cc3nc4ccccc4n(-c4ccc(Cl)cc4)c-3c/c2=N\C2CCOCC2)cn1 [TBI-449, 5-(4-Chlorophenyl)-3-(4-tetrahydropyranyl)imino-2-(6-methyl-3-pyridyl)amino-3,5-dihydrophenazine]
H37Rv
  Log CFU (TBI treated): 3.87
  log reduction at 20 mg/kg: 4.66
[1]; [7]
  MIC: 0.03 µg/mL (≈ 0.0605 µM)

## Clc1ccc(-n2c3c/c(=N\C4CCN(C5CCCC5)CC4)c(Nc4cccnc4)cc-3nc3ccccc32)cc1 [TBI-437, 5-(4-Chlorophenyl)-3-(N-cyclopentyl-4-piperidyl)imino-2-(3-pyridyl)amino-3,5-dihydrophenazine]
[1]; [7]
  MIC: 0.125 µg/mL (≈ 0.228 µM)
other
  melting point: 170 to 172 °C

## COc1ncccc1Nc1cc2nc3ccccc3n(-c3ccc(Br)cc3)c-2c/c1=N\C1CC1 [TBI-519, 5-(4-Bromophenyl)-3-cyclopropylimino-2-(2-methoxy-3-pyridyl)amino-3,5-dihydrophenazine]
[1]; [7]
  MIC: 0.015 µg/mL (≈ 0.0293 µM)
other
  melting point: 217 to 218 °C

## CN1CCC(C/N=c2\cc3n(-c4ccc(Cl)cc4)c4ccccc4nc-3cc2Nc2cccnc2)CC1 [TBI-428, 5-(4-Chlorophenyl)-3-(N-methyl-4-piperidylmethyl)imino-2-(3-pyridyl)amino-3,5-dihydrophenazine]
[1]; [7]
  MIC: 0.25 µg/mL (≈ 0.491 µM)
other
  melting point: 188 to 190 °C

## COc1ncccc1Nc1cc2nc3ccccc3n(-c3ccc(Cl)cc3)c-2c/c1=N\C1CCOCC1 [TBI-443, 5-(4-chlorophenyl)-3-(4-tetrahydropyranyl)imino-2-(2-methoxy-3-pyridyl)amino-3,5-dihydrophenazine]
H37Rv
  Log CFU (TBI treated): 5.13
  log reduction at 20 mg/kg: 3.4
[1]; [7]
  MIC: 0.016 µg/mL (≈ 0.0312 µM)

## FC(F)(F)Oc1ccc(-n2c3c/c(=N\C4CCOCC4)c(Nc4cccnc4)cc-3nc3ccccc32)cc1 [TBI-161, 5-(4-Trifluoromethoxyphenyl)-3-(4-tetrahydropyranyl)imino-2-(3-pyridyl)amino-3,5-dihydrophenazine]
H37Rv
  Log CFU (TBI treated): 6.05
  log reduction at 20 mg/kg: 2.77
[1]; [7]
  MIC: 0.03 µg/mL (≈ 0.0564 µM)

## COC1CCC(/N=c2\cc3n(-c4ccc(Cl)cc4)c4ccccc4nc-3cc2Nc2ccc(C)nc2)CC1 (centres unmarked) [TBI-450, 5-(4-Chlorophenyl)-3-(4-methoxycyclohexyl)imino-2-(6-methyl-3-pyridyl)amino-3,5-dihydrophenazine]
H37Rv
  Log CFU (TBI treated): 3.64
  log reduction at 20 mg/kg: 4.89
[1]; [7]
  MIC: 0.016 µg/mL (≈ 0.0305 µM)

## CC(C)/N=c1\cc2n(-c3ccc(Cl)cc3)c3ccccc3nc-2cc1Nc1cccnc1 [TBI-416, 5-(4-chlorophenyl)-3-(1-methylethyl)imino-2-(3-pyridyl)amino-3,5-dihydrophenazine]
H37Rv
  Log CFU (TBI treated): 3.83
  log reduction at 20 mg/kg: 4.7
[1]; [7]
  MIC: 0.03 µg/mL (≈ 0.0682 µM)

## COC1CCC(/N=c2\cc3n(-c4ccc(C(F)(F)F)cc4)c4ccccc4nc-3cc2Nc2cccnc2)CC1 (centres unmarked) [TBI-688, 5-(4-Trifluoromethylphenyl)-3-(4-methoxycyclohexyl)imino-2-(3-pyridyl)amino-3,5-dihydrophenazine]
H37Rv
  Log CFU (TBI treated): 5.99
  log reduction at 20 mg/kg: 2.83
[1]; [7]
  MIC: 0.03 µg/mL (≈ 0.0552 µM)

## CC(C)CN1CCC(/N=c2\cc3n(-c4ccc(Cl)cc4)c4ccccc4nc-3cc2Nc2cccnc2)CC1 [TBI-435, 5-(4-Chlorophenyl)-3-(N-isobutyl-4-piperidyl)imino-2-(3-pyridyl)amino-3,5-dihydrophenazine]
[1]; [7]
  MIC: 0.25 µg/mL (≈ 0.465 µM)
other
  melting point: 209 to 210 °C

## CC(C)/N=c1\cc2n(-c3cccc(F)c3)c3ccccc3nc-2cc1Nc1cccnc1 [TBI-522, 5-(3-Fluorophenyl)-3-(1-methylethyl)imino-2-(3-pyridyl)amino-3,5-dihydrophenazine]
[1]; [7]
  MIC: 0.062 µg/mL (≈ 0.146 µM)
other
  melting point: 164 to 166 °C

## COC1CCC(/N=c2\cc3n(-c4ccc(Cl)cc4)c4ccccc4nc-3cc2Nc2cccnc2)CC1 (centres unmarked) [TBI-436, 5-(4-Chlorophenyl)-3-(4-methoxycyclohexyl)imino-2-(3-pyridyl)amino-3,5-dihydrophenazine]
[1]; [7]
  MIC: 0.03 µg/mL (≈ 0.0588 µM)
other
  melting point: 228 to 230 °C

## COc1ncccc1Nc1cc2nc3ccccc3n(-c3ccc(F)cc3)c-2c/c1=N\C1CCC(OC)CC1 (centres unmarked) [TBI-1002, 5-(4-Fluorophenyl)-3-(4-methoxycyclohexyl)imino-2-(2-methoxy-3-pyridyl)amino-3,5-dihydrophenazine]
H37Rv
  Log CFU (TBI treated): 4.85
  log reduction at 20 mg/kg: 3.68
[1]; [7]
  MIC: 0.016 µg/mL (≈ 0.0306 µM)

## CC(C)/N=c1\cc2n(-c3ccc(Cl)cc3)c3ccccc3nc-2cc1Nc1ccc(Cl)cc1 [clofazimine]
Tuberculosis [2]
  efficacy: failed to show efficacy
Tuberculosis [3]
  efficacy: failed to show efficacy
Tuberculosis [4]
  in vivo anti-TB activity: demonstrated in vivo anti-TB activity
Tuberculosis [5]
  in vivo anti-TB activity: demonstrated in vivo anti-TB activity
[6]
  half-life: 70 days

## CC(C)/N=c1\cc2n(-c3ccc(C(F)(F)F)cc3)c3ccccc3nc-2cc1Nc1cccnc1 [TBI-678, 5-(4-Trifluoromethylphenyl)-3-(1-methylethyl)imino-2-(3-pyridyl)amino-3,5-dihydrophenazine]
H37Rv
  Log CFU (TBI treated): 5.82
  log reduction at 20 mg/kg: 3
[1]; [7]
  MIC: 0.03 µg/mL (≈ 0.0634 µM)

## Clc1ccc(-n2c3c/c(=N\C4CCOCC4)c(Nc4cccnc4)cc-3nc3ccccc32)cc1 [TBI-434, 5-(4-Chlorophenyl)-3-(4-tetrahydropyranyl)imino-2-(3-pyridyl)amino-3,5-dihydrophenazine]
[1]; [7]
  MIC: 0.03 µg/mL (≈ 0.0622 µM)
other
  melting point: 215 to 217 °C

## COc1ncccc1Nc1cc2nc3ccccc3n(-c3ccc(F)cc3)c-2c/c1=N\C1CC1 [TBI-1010, 5-(4-Fluorophenyl)-3-cyclopropylimino-2-(2-methoxy-3-pyridyl)amino-3,5-dihydrophenazine]
H37Rv
  Log CFU (TBI treated): 4.86
  log reduction at 20 mg/kg: 3.67
[1]; [7]
  MIC: 0.011 µg/mL (≈ 0.0244 µM)

## CN1CCC(/N=c2\cc3n(-c4ccc(Cl)cc4)c4ccccc4nc-3cc2Nc2cccnc2)CC1 [TBI-427, 5-(4-Chlorophenyl)-3-(N-methyl-4-piperidyl)imino-2-(3-pyridyl)amino-3,5-dihydrophenazine]
[1]; [7]
  MIC: 0.125 µg/mL (≈ 0.253 µM)
other
  melting point: 198 to 200 °C

## COc1ncccc1Nc1cc2nc3ccccc3n(-c3ccc(F)cc3)c-2c/c1=N\C(C)C [TBI-1004, 5-(4-Fluorophenyl)-3-(1-methylethyl)imino-2-(2-methoxy-3-pyridyl)amino-3,5-dihydrophenazine]
H37Rv
  Log CFU (TBI treated): 4.28
  log reduction at 20 mg/kg: 4.25

## Clc1ccc(-n2c3c/c(=N\C4CCCCC4)c(Nc4cccnc4)cc-3nc3ccccc32)cc1 [TBI-422, 5-(4-Chlorophenyl)-3-cyclohexylimino-2-(3-pyridyl)amino-3,5-dihydrophenazine]
[1]; [7]
  MIC: 0.06 µg/mL (≈ 0.125 µM)
other
  melting point: 194 to 196 °C

## COc1ncccc1Nc1cc2nc3ccccc3n(-c3ccc(OC(F)(F)F)cc3)c-2c/c1=N\C1CCC(OC)CC1 (centres unmarked) [TBI-166, 5-(4-Trifluoromethoxyphenyl)-(4-methoxycyclohexyl)imino-2-(2-methoxy-3-pyridyl)amino-3,5-dihydrophenazine]
H37Rv
  Log CFU (TBI treated): 4.66
  log reduction at 20 mg/kg: 3.87
[1]; [7]
  MIC: 0.016 µg/mL (≈ 0.0271 µM)

## COc1ncccc1Nc1cc2nc3ccccc3n(-c3ccc(Cl)cc3)c-2c/c1=N\C1CCC(OC)CC1 (centres unmarked) [TBI-444, 5-(4-Chlorophenyl)-3-(4-methoxycyclohexyl)imino-2-(2-methoxy-3-pyridyl)amino-3,5-dihydrophenazine]
H37Rv
  Log CFU (TBI treated): 4.71
  log reduction at 20 mg/kg: 3.82
[1]; [7]
  MIC: 0.016 µg/mL (≈ 0.0296 µM)

## Cc1ncccc1Nc1cc2nc3ccccc3n(-c3ccc(F)cc3)c-2c/c1=N\C1CC1 [TBI-1014, 5-(4-Fluorophenyl)-3-cyclopropylimino-2-(2-methyl-3-pyridyl)amino-3,5-dihydrophenazine]
[1]; [7]
  MIC: 0.025 µg/mL (≈ 0.0574 µM)

## CC(C)/N=c1\cc2n(-c3ccc(OC(F)(F)F)cc3)c3ccccc3nc-2cc1Nc1ncccc1[N+](=O)[O-] [TBI-954, 5-(4-Trifluoromethoxyphenyl)-3-(1-methylethyl)imino-2-(3-nitro-2-pyridyl)amino-3,5-dihydrophenazine]
[1]; 7H9, Alamar blue, inhibition ≧90%
  MIC: 0.03 µg/mL (≈ 0.0561 µM)

## COc1ncccc1Nc1cc2nc3ccccc3n(-c3ccc(Cl)cc3)c-2c/c1=N\C1CCCCC1 [TBI-451]
[1]; [7]
  MIC: 0.057 µg/mL (≈ 0.112 µM)

## COc1ncccc1Nc1cc2nc3ccccc3n(-c3ccc(OC(F)(F)F)cc3)c-2c/c1=N\C1CCN(C)CC1 [TBI-168, 5-(4-Trifluoromethoxyphenyl)-3-(N-methyl-4-piperidyl)imino-2-(2-methoxy-3-pyridyl)amino-3,5-dihydrophenazine]
[1]; [7]
  MIC: 0.109 µg/mL (≈ 0.19 µM)

## COc1ncccc1Nc1cc2nc3ccc(F)cc3n(-c3ccc(Cl)cc3)c-2c/c1=N\C1CCOCC1 [TBI-928]
[1]; [7]
  MIC: 0.5 µg/mL (≈ 0.943 µM)

## CC(C)/N=c1\cc2n(-c3ccc(Cl)c(Cl)c3)c3ccccc3nc-2cc1Nc1cccnc1 [TBI-336, 5-(3,4-Dichlorophenyl)-3-(1-methylethyl)imino-2-(3-pyridyl)amino-3,5-dihydrophenazine]
[1]; [7]
  MIC: 0.055 µg/mL (≈ 0.116 µM)

## Cc1ccc(-n2c3c/c(=N\C4CC4)c(Nc4cccnc4)cc-3nc3ccccc32)cc1 [TBI-349, 5-(4-Methylphenyl)-3-cyclopropylimino-2-(3-pyridyl)amino-3,5-dihydrophenazine]
[1]; [7]
  MIC: 0.0075 µg/mL (≈ 0.018 µM)
